Test system: perennial ryegrass 96-3047
Assay: glyphosate applied at termination of the Maryland turf trial, plot survival
Assay type: in vivo, Lolium perenne L.
Conditions: perennial ryegrass 96-3047 plot, Maryland trial 1999, glyphosate at 2-quarts per acre; only plot not killed
From the text: In 1999, during the termination of the Maryland trial, 96-3047 was the only plot in the trial that was not killed when glyphosate at the rate of 2-quarts per acre was applied. Survival in the plot was estimated at 30% and plugs were pulled, coded as 99-0089, and 200 plants of 99-0089 were planted in an isolation block in the 1999 Post Falls, Id. nursery.

## O=C(O)CNCP(=O)(O)O [glyphosate, N-(phosphonomethyl) glycine]
  Survival in the plot: ~30%

Source: patent publication US20110191876A1, “GLYPHOSATE TOLERANT PERENNIAL RYEGRASS NAMED 'JACKLIN 501'” (J.R. SIMPLOT COMPANY, priority 2009, published 2011)
